Literature values in patent publication US20030114415A1, “Compositions and methods for treating and preventing memory impairment using citicoline” (priority 2001, published 2003).
Like-named read-outs stand apart in the source and are kept apart here.

Experiments:
[1] = human; 1000 mg citicoline per day
[2] = system: stroke and head trauma patients
[3] = rat; 500 mg/kg/day citicoline

- plasma choline concentration [1]: 1.5 ng/mL
- absorption when administered orally (oral): absorbed almost completely
- plasma choline concentration [3]: 1.5 ng/mL
Compound: C[N+](C)(C)CCOP(=O)(O)OP(=O)([O-])OC[C@H]1O[C@@H](n2ccc(N)nc2=O)[C@H](O)[C@@H]1O [citicoline, cytidine-5′-diphosphocholine]
- bioavailability when administered orally (oral compared with intravenous): approximately the same as when administered intravenously
- negative side effects, including dizziness ([2]; patients, 500 mg per day): minimizing any negative side effects
- tolerability ([2]; stroke and head trauma patients, 250 mg/day to 1000 mg/day for several weeks): tolerated citicoline well
